The values below come from patent publication US20110212137A1, “INHALABLE PHARMACEUTICAL COMPOSITION” (TEVA BRANDED PHARMACEUTICAL PRODUCTS R&D, INC., priority 2010, published 2011).

The assay concerns Asthma patients. The experiment in a line: Retrospective observational cohort study (UK General Practice Research Database): odds of successful asthma control after ICS increase. Format: in vivo. The conditions noted are these: compared with Qvar; as the primary proxy plus average daily prescribed salbutamol no more than 200 mcg and terbutaline 500 mcg; 12 month follow-up. An excerpt:
Qvar® and other inhaled corticosteroids (ICS) CFC-beclometasone (BDP) and fluticasone propionate (FP) were compared in a large representative, UK clinical database.
Patients were eligible if they had data available for the twelve months prior to AND twelve months after the date of ICS increase. Multiple logistic regression, adjusted for baseline severity, provided odds of successful asthma control (no asthma hospital attendances, oral steroids, consultations or hospital admissions for lower respiratory tract infections requiring antibiotics) during 12 month follow-up. Poisson regression was used to compare asthma exacerbation rates (unscheduled hospital admissions/A&E attendances for asthma or use of oral steroids).
Study Design: A retrospective, observational, cohort study design was used, consisting of two time periods: a baseline period for confounder definition (minimum of one year before index prescription date) and an outcome period of one year post-index prescription date. The study design is shown in schematic format in FIG. 1.
Statistical Analysis: Descriptive statistics were used to compare baseline outcomes. Multiple logistic regression, adjusted for baseline severity and other potential confounders found at baseline, was used to determine the odds of successful asthma control. Poisson regression was used to compare exacerbation rates. […]

For `CCC(=O)O[C@]1(C(=O)SCF)[C@H](C)C[C@H]2[C@@H]3C[C@H](F)C4=CC(=O)C=C[C@]4(C)[C@@]3(F)[C@@H](O)C[C@@]21C` [FP, fluticasone propionate], the “Adjusted odds ratio for successful asthma control, revised definition including SABA use” value stood at 0.90.
